Where two headings read alike, the source gives them in different places.
Experiments:
[1] = test system: secondary alcohol dehydrogenase; test: Activity of purified yeast-derived secondary alcohol dehydrogenase; type: biochemical, Pichia sp. NRRL Y-11,328
[2] = test system: cell extracts of Torulopsis sp. strain A1 NRRL Y-11,419; test: NAD+-dependent oxidation of secondary alcohols by cell extracts of yeasts; type: biochemical; conditions: for Conversion Rate, secondary alcohol to methylketone: cell extracts, grown on methanol, NAD+, gas chromatography
[3] = test system: cell extracts of Candida utilis ATCC 26,387; test: as above; type: biochemical; conditions: for Conversion Rate, secondary alcohol to methylketone: cell extracts, grown on methanol, NAD+, gas chromatography
[4] = test system: Candida utilis ATCC 26387; test: Oxidation of sec-alcohols to ketones by cell suspensions of yeasts; type: cell-based
[5] = test system: cell-free soluble extract of Pseudomonas sp. CRL 75 (ATCC 21,439); test: Oxidation of secondary alcohols by cell-free soluble extract (NAD added); type: biochemical; conditions: soluble crude extract, grown on methanol
Protocol: (§1) To prepare the cell-free secondary alcohol dehydrogenase (SADH) system, the washed cells were disrupted with a Wave Energy Ultrasonic Oscillator, Model W201 (Wave Energy System, Inc., Newtown, Pa.) and centrifuged at 20,000× g. for 30 minutes. […] The enzyme activity was measured with a fluorescence spectrophotometer (Perkin Elmer, Model MPF 44A) by following the formation of reduced NAD (EX 340 nm, Em 460 nm). The formation of reduced NAD was also followed with an absorption spectrophotometer at 340 nm. The assay system (3 ml.) contained: potassium phosphate buffer pH 7.0; 150 μmol.; NAD 1 μmol.; a given amount of enzyme preparation; and secondary alcohol 10 μmol. The reaction was started by the addition of substrate. One unit of enzyme activity represents the reduction of one μmole NAD per minute. Protein concentrations were determined by the Lowry method (J. Biol. Chem., 193: 255-275 (1951)).
(§2) The experimental procedure for the tests reported in Table VIII were as follows: 1 mg protein of crude extract was added into a 0.5 ml. 0.05 M phosphate buffer (pH 7.0) in a 10-ml. vial. […] The reaction mixture was incubated at 30° C. on a water bath. A 3 μl sample was removed with a syringe at 15 min. of incubation and was assayed with g.l.c. Catalytic activity was also assayed by fluorescence spectrophotometry.

[6] = test system: cell-free soluble extract of Methylococcus capsulatus CRL M1 (NRRL B-11,219); test: as above; type: biochemical; conditions: soluble crude extract, grown on methanol
Protocol: as §1, §2

[7] = test system: cell-free soluble extract of Methylosinus trichosporium OB3b (NRRL B-11,196); test: as above; type: biochemical; conditions: soluble crude extract, grown on methanol
Protocol: as §1, §2

[8] = test system: cell-free soluble extract of Methylobacterium organophilum CRL 26 (NRRL B-11,222); test: as above; type: biochemical; conditions: soluble crude extract, grown on methanol
Protocol: as §1, §2

[9] = test system: cell extracts of Kloeckera sp. strain A2 NRRL Y-11,420; test: NAD+-dependent oxidation of secondary alcohols by cell extracts of yeasts; type: biochemical; conditions: for Conversion Rate, secondary alcohol to methylketone: cell extracts, grown on methanol, NAD+, gas chromatography
[10] = test system: Methylosinus trichosporium OB3b (NRRL B-11,196); test: Oxidation of sec-alcohols to ketones by resting cell suspension; type: cell-based
Protocol: (§3) The pH of the nutrient medium was adjusted to 7.0 by the addition of acid or base and 50 ml. samples of the nutrient medium were charged into a plurality of 300 ml. shaker flasks. The shaker flasks were inoculated with an inoculating loop of cells from an agar plate containing homogeneous colonies of the microorganisms on the plate (the purity of the isolates was confirmed by microscopic examination). The isolates had been maintained on methanol (0.4% V/V) agar plates or on agar plates under an atmosphere of methane and air having a 1:1 V/V gas ratio which had been transferred every two weeks. For growth on methanol, the medium was supplemented with 0.4% methanol. For growth on methane, the gaseous phase of the inoculated flasks was replaced with a gas mixture comprised on methane and air having a ratio of 1:1 on a V/V basis. The inoculated flasks were sealed air-tight and were incubated on a rotary shaker of orbital radius 2.5 cm. at 250 rpm and at 30° C. for two days until turbidity in the medium had developed. The cells were harvested by centrifugation at 10,000×g. at 4° C. for 30 minutes. The cell pellet was washed twice with a 0.05 M phosphate buffer at a pH of 7.0 (containing 0.02 M MgCl2). The washed cells were then suspended in a 0.05 M phosphate buffer at pH 7.0.
(§4) A 0.5 ml. sample of each washed cell suspension (2 mg. cells) was put into 10 ml. vials at 4° C. which were sealed with a rubber cap. The gaseous phase of the vials was removed with vacuum and then was replaced with a gas mixture of the substrate reactant (i.e., alkane or secondary alcohol) and oxygen at a 1:1 V/V ratio. (In the case of a liquid substrate, i.e., secondary alcohol, 10 μl of the substrate was put in the 10 ml. vials). […] Samples of product (1-3 μl) were withdrawn periodically with a microsyringe and the products were analyzed by gas chromatography (ionization flame detector column).
(§5) The procedure in Example 1 was repeated wherein a plurality of the methane-utilizing methylotrophic microorganisms were each grown aerobically in a nutrient medium containing methane as the alcohol dehydrogenase enzyme inducer and as the major carbon and energy source for growth. The cells were harvested and washed as described in Example 1. The resting microbial cells of the induced methane-grown methane-utilizing methylotrophic microorganisms were then contacted with C3 -C6 secondary alcohols in a buffered solution by the procedure of Example 1.
(§6) In this example, the procedure in Example 1 was repeated except that a plurality of methane-utilizing methylotrophic microorganisms were each aerobically grown in a methanol-containing nutrient medium instead of a methane-containing medium. The nutrients in the medium were the same as indicated in Example 1 except that 0.4% V/V methanol was used as the alcohol dehydrogenase inducer and major source of carbon and energy for growth. Following growth, the cells were harvested and washed as described in Example 1. The resting cells of the induced methanol-grown methylotrophic microorganisms were then contacted with secondary alcohols in a buffered solution by the procedure described in Example 1.
(§7) The procedure in Example 1 was repeated except that the methylotrophic microorganisms were each aerobically grown in an alcohol dehydrogenase-inducing growth medium containing methylamine or methyl formate as the alcohol dehydrogenase enzyme inducer and growth substrate instead of methane. The nutrients in the medium were the same as indicated in Example 1 except that 0.4% V/V of the alcohol dehydrogenase-inducer growth substrate was used as the major carbon and energy source. The cells were harvested and washed as described in Example 1. The resting microbial cells were then contacted with C3 -C6 secondary alcohols in a buffered solution by the conversion procedure of Example 1.

[11] = test system: Methylobacterium organophilum XX (ATCC 27886); test: as above; type: cell-based
Protocol: as §3, §4, §5, §6, §7

[12] = test system: cell extracts of Hansenula polymorpha ATCC 26,012; test: NAD+-dependent oxidation of secondary alcohols by cell extracts of yeasts; type: biochemical; conditions: for Conversion Rate, secondary alcohol to methylketone: cell extracts, grown on methanol, NAD+, gas chromatography
[13] = spectrophotometric, 2-butanol as substrate

Compound	Conversion Rate, secondary alcohol to methylketone [2] [μmoles/hr/mg Protein]	Conversion Rate, secondary alcohol to methylketone [3] [μmoles/hr/mg Protein]	Conversion Rate, sec-alcohol to ketone ([4]; growth substrate Ethanol)	Conversion Rate, sec-alcohol to ketone ([4]; growth substrate Methanol)	Conversion Rate, sec-alcohol to ketone ([4]; growth substrate Methylamine)	Conversion Rate, sec-alcohol to ketone ([4]; growth substrate Methylformate)	Conversion Rate, sec-alcohol to ketone ([4]; growth substrate Propylamine)	Oxidation Rate, sec-alcohol to methyl ketone [5] [nmole/min/mg protein]	Oxidation Rate, sec-alcohol to methyl ketone [6] [nmole/min/mg protein]	Oxidation Rate, sec-alcohol to methyl ketone [7] [nmole/min/mg protein]	Oxidation Rate, sec-alcohol to methyl ketone [8] [nmole/min/mg protein]	Conversion Rate, secondary alcohol to methylketone [9] [μmoles/hr/mg Protein]	Conversion Rates, sec-alcohol to methyl ketone ([10]; cells grown on methanol) [μmoles/hr/mg protein]	Conversion Rates, sec-alcohol to methyl ketone ([10]; methyl formate-grown) [μmoles/hr/mg protein]	Conversion Rates, sec-alcohol to methyl ketone ([10]; resting cells grown on methane) [μmoles/hr/mg protein]	Conversion Rates, sec-alcohol to methyl ketone ([11]; cells grown on methanol) [μmoles/hr/mg protein]	Conversion Rates, sec-alcohol to methyl ketone ([11]; methyl formate-grown) [μmoles/hr/mg protein]	Conversion Rates, sec-alcohol to methyl ketone ([11]; resting cells grown on methane) [μmoles/hr/mg protein]	Conversion Rate, secondary alcohol to methylketone [12] [μmoles/hr/mg Protein]	substrate specificity of purified yeast secondary alcohol dehydrogenase (in words) ([1]; spectrophotometric)	other results
CCC(C)O (stereo not drawn) [2-Butanol, 2-butanol]	4.9	4.92	5.2 μmoles/hr/mg of protein	6.8 μmoles/hr/mg of protein	5.0 μmoles/hr/mg of protein	6.2 μmoles/hr/mg of protein	4.2 μmoles/hr/mg of protein	25.0	2.0	2.4	2.5	5.9	4.1	4.5	3.7	2.8	3.5	2.5	5.2		substrate specificity of purified yeast secondary alcohol dehydrogenase (in words) [1]: catalyzed the oxidation; specific activities [2, 13]: 62 nmoles NAD^+ reduced per min. per mg. protein; specific activities [3, 13]: 78 nmoles NAD^+ reduced per min. per mg. protein; specific activities [9, 13]: 90 nmoles NAD^+ reduced per min. per mg. protein; specific activities [12, 13]: 85 nmoles NAD^+ reduced per min. per mg. protein
CCCC(C)O (stereo not drawn) [2-Pentanol, 2-pentanol]	1.0	0.82	1.0 μmoles/hr/mg of protein	1.5 μmoles/hr/mg of protein	1.2 μmoles/hr/mg of protein	1.3 μmoles/hr/mg of protein	0.9 μmoles/hr/mg of protein	1.2	0.1	0.1	0.1	1.2	2.9	1.5	2.7	0.9	1.0	0.82	1.0	catalyzed the oxidation	
CCCCC(C)O (stereo not drawn) [2-Hexanol, 2-hexanol]	0.21	0.45	0.72 μmoles/hr/mg of protein	0.8 μmoles/hr/mg of protein	0.61 μmoles/hr/mg of protein	0.75 μmoles/hr/mg of protein	0.52 μmoles/hr/mg of protein	0	0	0	0	0.25	0.9	0.72	0.07	1.1	0.70	0.12	0.51	catalyzed the oxidation	
CC(C)O [2-Propanol, 2-propanol]	4.5	4.5	5.2 μmoles/hr/mg of protein	6.2 μmoles/hr/mg of protein	5.0 μmoles/hr/mg of protein	5.6 μmoles/hr/mg of protein	4.2 μmoles/hr/mg of protein	21.2	1.7	2.0	2.1	4.8	0.30	0.95	0.25	0.70	0.48	0.5	4.8	catalyzed the oxidation	

Reference: patent publication US4268630A, “Microbiological production of ketones from C3 -C6 alkanes” (priority 1979, dated 1981)
